# In patent publication US9932637B2, “Genetic polymorphisms associated with cardiovascular disorders and drug response, methods of detection and uses thereof” (CELERA CORPORATION, priority 2003, dated 2018):
# Test system: patients with prior myocardial infarction (CARE study)
# Assay: CARE: association of SNPs with pravastatin treatment in cardiovascular events prevention (logistic regression, odds ratio pravastatin vs placebo by genotype; Table 8)
# Assay type: in vivo, human
# Settings: for Odds ratio pravastatin vs placebo: All Patients
# Source text: In order to identify genetic markers associated with acute coronary events (e.g. MI, stroke, unstable angina, congestive heart failure, etc.) or response to statin treatment for the prevention of coronary events, samples from the Cholesterol and Recurrent Events (CARE) study (a randomized multicentral double-blinded trial on secondary prevention of acute coronary events with pravastatin) (Sacks et al., 1991, Am. J. Cardiol. 68: 1436-1446) were genotyped. A well-documented myocardial infarction (MI) was one of the enrollment criteria for entry into the CARE study. Patients were enrolled in the CARE trial from 80 participating study centers. […] Patients were randomized to receive either 40 mg of pravastatin once daily or a matching placebo. The primary endpoint of the trial was death from coronary heart disease and the median duration of follow-up was 5.0 years (range, 4.0 to 6.2 years). […] Secondary endpoints of other related cardiovascular or metabolic disease events, and changes in clinical variables were also recorded in pravastatin-treated and placebo groups. All individuals included in the study had signed a written informed consent form and the study protocol was approved by the respective Institutional Review Boards (IRBs).
# For genotyping SNPs in CARE patient samples, DNA was extracted from blood samples using conventional DNA extraction methods such as the QIA-amp kit from Qiagen. Genotypes were obtained on an ABI PRISM® 7900HT Sequence Detection PCR system (Applied Biosystems, Foster City, Calif.) by kinetic allele-specific PCR, similar to the method described by Germer et al. (Germer S., Holland M. J., Higuchi R. 2000, Genome Res. 10: 258-266).
# Statistical analysis for association of SNPs with pravastatin treatment in cardiovascular events prevention (Table 8) was carried out using an overall logistic regression model that included an intercept, a parameter for the effect of a genotype containing two rare alleles versus a genotype containing no rare alleles, a parameter for the effect of a genotype containing one rare allele versus a genotype containing no rare alleles, a parameter for the effect of use of pravastatin versus the use of placebo, and parameters for the interaction effects between SNP genotypes and pravastatin use. The test of the overall model is a chi-square test with two degrees of freedom for analyses containing all three genotypes, and one degree of freedom for analyses containing two genotypes.
# Effect sizes were estimated through odds ratios (pravastatin group versus placebo) for carriers of each genotype (groups of 0, 1, and 2 minor allele carriers). The effect was considered to be significant if p-value for testing whether any of the interactions between SNP genotypes and pravastatin use were <0.05. […] Odds ratios less than one indicate that the specific SNP allele has a protective effect and odds ratios greater than one indicate that the specific SNP allele has an adverse effect.
# [1] = TLR5 hCV15871020, All Patients, 2 Rare Alleles, Prava arm
# [2] = TLR6 hCV1180648, All Patients, 0 Rare Alleles, Prava arm
# [3] = TLR6 hCV1180648, All Patients, 1 Rare Allele, Prava arm
# [4] = TLR6 hCV1180648, All Patients, 2 Rare Alleles, Prava arm
# [5] = TNF hCV7514879, All Patients, 0 Rare Alleles, Prava arm
# [6] = TNF hCV7514879, All Patients, 1 Rare Allele, Prava arm
# [7] = TNF hCV7514879, All Patients, 2 Rare Alleles, Prava arm
# [8] = VEGF hCV791476, All Patients, 0 Rare Alleles, Prava arm
# [9] = VEGF hCV791476, All Patients, 1 Rare Allele, Prava arm
# [10] = VEGF hCV791476, All Patients, 2 Rare Alleles, Prava arm
smiles,measurement,setting,value
CC[C@H](C)C(=O)O[C@H]1C[C@H](O)C=C2C=C[C@H](C)[C@H](CC[C@@H](O)C[C@@H](O)CC(=O)O)[C@H]21 [pravastatin],"Fatal/Non-fatal Atherosclerotic CV Disease, n/total (%)",[1],(17.6%)
same,"Hosp. for Cardiovascular Disease, n/total (%)",[1],(14.7%)
same,"Total Cardiovascular Disease Events, n/total (%)",[1],(17.6%)
same,"Total Coronary Heart Disease Events, n/total (%)",[1],(11.8%)
same,Odds ratio pravastatin vs placebo,"TLR5 hCV15871020, Fatal/Non-fatal Atherosclerotic CV Disease, 0 rare alleles",0.84
same,Odds ratio pravastatin vs placebo,"TLR5 hCV15871020, Fatal/Non-fatal Atherosclerotic CV Disease, 1 rare allele",0.68
same,Odds ratio pravastatin vs placebo,"TLR5 hCV15871020, Fatal/Non-fatal Atherosclerotic CV Disease, 2 rare alleles",0.14
same,Odds ratio pravastatin vs placebo,"TLR5 hCV15871020, Hosp. for Cardiovascular Disease, 0 rare alleles",0.81
same,Odds ratio pravastatin vs placebo,"TLR5 hCV15871020, Hosp. for Cardiovascular Disease, 1 rare allele",0.72
same,Odds ratio pravastatin vs placebo,"TLR5 hCV15871020, Hosp. for Cardiovascular Disease, 2 rare alleles",0.09
same,Odds ratio pravastatin vs placebo,"TLR5 hCV15871020, Total Cardiovascular Disease Events, 0 rare alleles",0.81
same,Odds ratio pravastatin vs placebo,"TLR5 hCV15871020, Total Cardiovascular Disease Events, 1 rare allele",0.70
same,Odds ratio pravastatin vs placebo,"TLR5 hCV15871020, Total Cardiovascular Disease Events, 2 rare alleles",0.10
same,Odds ratio pravastatin vs placebo,"TLR5 hCV15871020, Total Coronary Heart Disease Events, 0 rare alleles",0.86
same,Odds ratio pravastatin vs placebo,"TLR5 hCV15871020, Total Coronary Heart Disease Events, 1 rare allele",0.64
same,Odds ratio pravastatin vs placebo,"TLR5 hCV15871020, Total Coronary Heart Disease Events, 2 rare alleles",0.10
same,"Cardiovascular Mortality, n/total (%)",[2],(3.5%)
same,"Fatal Atherosclerotic Cardiovascular Disease, n/total (%)",[2],(3.5%)
same,"Fatal Coronary Heart Disease, n/total (%)",[2],(3.3%)
same,"Cardiovascular Mortality, n/total (%)",[3],(2.5%)
same,"Fatal Atherosclerotic Cardiovascular Disease, n/total (%)",[3],(2.5%)
same,"Fatal Coronary Heart Disease, n/total (%)",[3],(1.9%)
same,"Cardiovascular Mortality, n/total (%)",[4],(6.9%)
same,"Fatal Atherosclerotic Cardiovascular Disease, n/total (%)",[4],(6.5%)
same,"Fatal Coronary Heart Disease, n/total (%)",[4],(6.2%)
same,"Fatal/Non-fatal MI (def & prob), n/total (%)",[5],(10.5%)
same,"Hosp. for Cardiovascular Disease, n/total (%)",[5],(40.9%)
same,"Total Cardiovascular Disease Events, n/total (%)",[5],(42.4%)
same,"Total Mortality, n/total (%)",[5],(6.0%)
same,"Fatal/Non-fatal MI (def & prob), n/total (%)",[6],(7.7%)
same,"Hosp. for Cardiovascular Disease, n/total (%)",[6],(38.9%)
same,"Total Cardiovascular Disease Events, n/total (%)",[6],(39.4%)
same,"Total Mortality, n/total (%)",[6],(4.7%)
same,"Fatal/Non-fatal MI (def & prob), n/total (%)",[7],(7.1%)
same,"Hosp. for Cardiovascular Disease, n/total (%)",[7],(35.7%)
same,"Total Cardiovascular Disease Events, n/total (%)",[7],(35.7%)
same,"Total Mortality, n/total (%)",[7],(3.6%)
same,Odds ratio pravastatin vs placebo,"TNF hCV7514879, Fatal/Non-fatal MI (def & prob), 0 rare alleles",0.80
same,Odds ratio pravastatin vs placebo,"TNF hCV7514879, Fatal/Non-fatal MI (def & prob), 1 rare allele",0.44
same,Odds ratio pravastatin vs placebo,"TNF hCV7514879, Fatal/Non-fatal MI (def & prob), 2 rare alleles",0.25
same,Odds ratio pravastatin vs placebo,"TNF hCV7514879, Hosp. for Cardiovascular Disease, 0 rare alleles",0.79
same,Odds ratio pravastatin vs placebo,"TNF hCV7514879, Hosp. for Cardiovascular Disease, 1 rare allele",0.76
same,Odds ratio pravastatin vs placebo,"TNF hCV7514879, Hosp. for Cardiovascular Disease, 2 rare alleles",0.20
same,Odds ratio pravastatin vs placebo,"TNF hCV7514879, Total Cardiovascular Disease Events, 0 rare alleles",0.79
same,Odds ratio pravastatin vs placebo,"TNF hCV7514879, Total Cardiovascular Disease Events, 1 rare allele",0.73
same,Odds ratio pravastatin vs placebo,"TNF hCV7514879, Total Cardiovascular Disease Events, 2 rare alleles",0.20
same,Odds ratio pravastatin vs placebo,"TNF hCV7514879, Total Mortality, 0 rare alleles",1.11
same,Odds ratio pravastatin vs placebo,"TNF hCV7514879, Total Mortality, 1 rare allele",0.57
same,Odds ratio pravastatin vs placebo,"TNF hCV7514879, Total Mortality, 2 rare alleles",0.19
same,"Cardiovascular Mortality, n/total (%)",[8],(4.2%)
same,"Fatal Atherosclerotic Cardiovascular Disease, n/total (%)",[8],(4.1%)
same,"Cardiovascular Mortality, n/total (%)",[9],(2.4%)
same,"Fatal Atherosclerotic Cardiovascular Disease, n/total (%)",[9],(2.4%)
same,"Cardiovascular Mortality, n/total (%)",[10],(2.0%)
same,"Fatal Atherosclerotic Cardiovascular Disease, n/total (%)",[10],(2.0%)
same,"odds ratio, pravastatin group vs control group, adverse coronary event","hCV2741051, one rare allele",0.43
same,"odds ratio, stroke in the pravastatin treated group","hCV2741051, one rare allele",0.21
same,"odds ratio, pravastatin group vs control group, adverse coronary event","hCV2741051, two rare alleles",0.26
same,"odds ratio, stroke in the pravastatin treated group","hCV2741051, two rare alleles",0.23
